This is an account of results in patent publication US20220323406A1, “METHODS AND COMPOSITIONS FOR DIFFERENTIATING STEM CELLS” (Massachusetts Institute of Technology, priority 2019, published 2022).

The test system of test [1] is ENR+CD organoids (ISC to Paneth cell differentiation). Kind of test: Primary screen: basal (non-stimulated) lysozyme secretion LYZ.NS, 2.5-D 384-well ENR+CD organoid differentiation. The format is cell-based, mouse. To be noted: primary screen; for Dose.FC.LYZ.NS: FC relative to plate median; for Z.LYZ.NS: standard z score. From the text:
(§1) High-throughput screening.

The test system is the same in test [2]. Kind of test: Primary screen: CCh-stimulated lysozyme secretion LYZ.S, 2.5-D 384-well ENR+CD organoid differentiation. The format is cell-based, mouse. The note with it: primary screen, FC relative to plate median.
Source text: as §1

The subject of test [3] is ENR+CD organoids. Kind of test: Primary screen: ATP (CellTiter-Glo 3D, CTG) cell number/viability, 2.5-D 384-well ENR+CD organoids.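 On all read-outs here: compounds given at plating and again on day 3 over a 6-day differentiation from ENR+CV stem-cell-enriched precursors, ATP measured on day 6, plate median as control.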 The note with it: primary screen; for Dose.FC.CTG: FC relative to plate median; for Z.CTG: standard z score.

Structures can show the parent of a compound that is named as a salt.

Turning to `O=C(NC(Cc1cc(=O)[nH]c2ccccc12)C(=O)O)c1ccc(Cl)cc1` (stereo not drawn) [Rebamipide], the Dose.FC.LYZ.NS is listed as 0.096 log2 fold change in test [1] (dose 0.08 uM), −0.091 log2 fold change in test [1] (dose 0.40 uM), −0.090 log2 fold change in test [1] (dose 2.00 uM) and −0.089 log2 fold change in test [1] (dose 10.00 uM). Besides, the Z.LYZ.NS was 0.832 in test [1] (dose 0.08 uM), −0.793 in test [1] (dose 0.40 uM), −0.780 in test [1] (dose 2.00 uM) and −0.773 in test [1] (dose 10.00 uM). Further, the Dose.FC.LYZ.S in test [2] (dose 0.08 uM) was −0.014 log2 fold change; in test [2] (dose 0.40 uM), 0.014 log2 fold change; in test [2] (dose 2.00 uM), −0.106 log2 fold change; in test [2] (dose 10.00 uM), −0.063 log2 fold change. Besides, the Dose.FC.CTG is reported as −0.256 log2 fold change in test [3] (dose 0.08 uM), −0.510 log2 fold change in test [3] (dose 0.40 uM), −0.203 log2 fold change in test [3] (dose 2.00 uM) and −0.281 log2 fold change in test [3] (dose 10.00 uM).

For `CO[C@H]1C[C@@H]2CC[C@@H](C)[C@@](O)(O2)C(=O)C(=O)N2CCCC[C@H]2C(=O)O[C@H]([C@H](C)C[C@@H]2CC[C@@H](OP(C)(C)=O)[C@H](OC)C2)CC(=O)[C@H](C)/C=C(\C)[C@@H](O)[C@@H](OC)C(=O)[C@H](C)C[C@H](C)/C=C/C=C/C=C/1C` [Ridaforolimus (Deforolimus, MK-8669)], the Dose.FC.LYZ.NS in test [1] (dose 0.08 uM) was 0.005 log2 fold change; in test [1] (dose 0.40 uM), 0.116 log2 fold change; in test [1] (dose 2.00 uM), 0.074 log2 fold change; in test [1] (dose 10.00 uM), 0.027 log2 fold change. Besides, the Z.LYZ.NS in test [1] (dose 0.08 uM) came to 0.041; in test [1] (dose 0.40 uM) it was 1.012; in test [1] (dose 2.00 uM), 0.646; in test [1] (dose 10.00 uM), 0.237. Besides, the Dose.FC.LYZ.S in test [2] (dose 0.08 uM) came to 0.050 log2 fold change; in test [2] (dose 0.40 uM), 0.069 log2 fold change; in test [2] (dose 2.00 uM) it was 0.019 log2 fold change; in test [2] (dose 10.00 uM), 0.039 log2 fold change. For the same molecule, the Dose.FC.CTG in test [3] (dose 0.08 uM) is 0.423 log2 fold change; in test [3] (dose 0.40 uM) it was 0.066 log2 fold change; in test [3] (dose 2.00 uM), 0.276 log2 fold change; in test [3] (dose 10.00 uM) it was 0.211 log2 fold change. Further, the Z.CTG is reported as 1.011 in test [3] (dose 0.08 uM), 0.157 in test [3] (dose 0.40 uM), 0.659 in test [3] (dose 2.00 uM) and 0.505 in test [3] (dose 10.00 uM).

Consider `COc1cc(OC)c(/C=C/S(=O)(=O)Cc2ccc(OC)c(NCC(=O)O)c2)c(OC)c1` [Rigosertib (ON-01910)], for which the Dose.FC.LYZ.NS is reported as −0.242 log2 fold change in test [1] (dose 0.08 uM), −0.210 log2 fold change in test [1] (dose 0.40 uM), −0.265 log2 fold change in test [1] (dose 2.00 uM) and −0.242 log2 fold change in test [1] (dose 10.00 uM). The Z.LYZ.NS is −2.105 in test [1] (dose 0.08 uM), −1.831 in test [1] (dose 0.40 uM), −2.306 in test [1] (dose 2.00 uM) and −2.107 in test [1] (dose 10.00 uM). For the same molecule, the Dose.FC.LYZ.S is given as −0.309 log2 fold change in test [2] (dose 0.08 uM), −0.355 log2 fold change in test [2] (dose 0.40 uM), −0.340 log2 fold change in test [2] (dose 2.00 uM) and −0.330 log2 fold change in test [2] (dose 10.00 uM). In addition, the Dose.FC.CTG was −0.905 log2 fold change in test [3] (dose 0.08 uM), −1.285 log2 fold change in test [3] (dose 0.40 uM), −1.668 log2 fold change in test [3] (dose 2.00 uM) and −0.847 log2 fold change in test [3] (dose 10.00 uM). In addition, the Z.CTG in test [3] (dose 0.08 uM) is given as −2.162; in test [3] (dose 0.40 uM), −3.069; in test [3] (dose 2.00 uM), −3.984; in test [3] (dose 10.00 uM) it was −2.022.

In the case of `Cc1c(C(=O)NN2CCCCC2)nn(-c2ccc(Cl)cc2Cl)c1-c1ccc(Cl)cc1` [Rimonabant], the Dose.FC.LYZ.NS is on record as 0.108 log2 fold change in test [1] (dose 0.08 uM), −0.063 log2 fold change in test [1] (dose 0.40 uM), −0.054 log2 fold change in test [1] (dose 2.00 uM) and −0.044 log2 fold change in test [1] (dose 10.00 uM). For the same molecule, the Z.LYZ.NS in test [1] (dose 0.08 uM) is given as 0.936; in test [1] (dose 0.40 uM), −0.545; in test [1] (dose 2.00 uM), −0.467; in test [1] (dose 10.00 uM), −0.385. Also, the Dose.FC.LYZ.S in test [2] (dose 0.08 uM) is given as 0.089 log2 fold change; in test [2] (dose 0.40 uM) it was −0.003 log2 fold change; in test [2] (dose 2.00 uM), −0.053 log2 fold change; in test [2] (dose 10.00 uM) it was −0.098 log2 fold change. Moreover, the Dose.FC.CTG came to 0.256 log2 fold change in test [3] (dose 0.08 uM), 0.206 log2 fold change in test [3] (dose 0.40 uM), 0.235 log2 fold change in test [3] (dose 2.00 uM) and 0.063 log2 fold change in test [3] (dose 10.00 uM).

With `O=C(NC[C@H]1CN(c2ccc(N3CCOCC3=O)cc2)C(=O)O1)c1ccc(Cl)s1` [Rivaroxaban], the Dose.FC.LYZ.NS is recorded as 0.108 log2 fold change in test [1] (dose 0.08 uM), −0.029 log2 fold change in test [1] (dose 0.40 uM), 0.153 log2 fold change in test [1] (dose 2.00 uM) and −0.045 log2 fold change in test [1] (dose 10.00 uM). The Z.LYZ.NS in test [1] (dose 0.08 uM) was 0.941; in test [1] (dose 0.40 uM), −0.248; in test [1] (dose 2.00 uM), 1.336; in test [1] (dose 10.00 uM) it was −0.390. Besides, the Dose.FC.LYZ.S in test [2] (dose 0.08 uM) is listed as 0.136 log2 fold change; in test [2] (dose 0.40 uM), −0.027 log2 fold change; in test [2] (dose 2.00 uM) it was 0.063 log2 fold change; in test [2] (dose 10.00 uM), −0.048 log2 fold change. Besides, the Dose.FC.CTG was 0.021 log2 fold change in test [3] (dose 0.08 uM), 0.195 log2 fold change in test [3] (dose 0.40 uM), 0.052 log2 fold change in test [3] (dose 2.00 uM) and 0.044 log2 fold change in test [3] (dose 10.00 uM).

For the molecule `CN(C)CCc1c[nH]c2ccc(Cn3cncn3)cc12` [Rizatriptan Benzoate], the Dose.FC.LYZ.NS in test [1] (dose 0.08 uM) was 0.070 log2 fold change; in test [1] (dose 0.40 uM), 0.148 log2 fold change; in test [1] (dose 2.00 uM), 0.027 log2 fold change; in test [1] (dose 10.00 uM) it was 0.000 log2 fold change. Also, the Z.LYZ.NS in test [1] (dose 0.08 uM) is listed as 0.613; in test [1] (dose 0.40 uM) it was 1.289; in test [1] (dose 2.00 uM) it was 0.238; in test [1] (dose 10.00 uM), −0.003. Also, the Dose.FC.LYZ.S is listed as 0.179 log2 fold change in test [2] (dose 0.08 uM), 0.019 log2 fold change in test [2] (dose 0.40 uM), −0.009 log2 fold change in test [2] (dose 2.00 uM) and 0.105 log2 fold change in test [2] (dose 10.00 uM). Further, the Dose.FC.CTG in test [3] (dose 0.08 uM) was 0.214 log2 fold change; in test [3] (dose 0.40 uM) it was 0.109 log2 fold change; in test [3] (dose 2.00 uM), 0.126 log2 fold change; in test [3] (dose 10.00 uM) it was −0.054 log2 fold change.

Take `COc1cc2c(cc1OC)[C@@H]1Cc3ccc(OC)c(OC)c3CN1CC2` [Rotundine]: the Dose.FC.LYZ.NS is reported as 0.124 log2 fold change in test [1] (dose 0.08 uM), 0.032 log2 fold change in test [1] (dose 0.40 uM), 0.072 log2 fold change in test [1] (dose 2.00 uM) and 0.126 log2 fold change in test [1] (dose 10.00 uM). Moreover, the Z.LYZ.NS in test [1] (dose 0.08 uM) is given as 1.082; in test [1] (dose 0.40 uM), 0.282; in test [1] (dose 2.00 uM), 0.623; in test [1] (dose 10.00 uM), 1.100. Moreover, the Dose.FC.LYZ.S is 0.151 log2 fold change in test [2] (dose 0.08 uM), 0.049 log2 fold change in test [2] (dose 0.40 uM), 0.080 log2 fold change in test [2] (dose 2.00 uM) and 0.095 log2 fold change in test [2] (dose 10.00 uM). Moreover, the Dose.FC.CTG was 0.359 log2 fold change in test [3] (dose 0.08 uM), 0.343 log2 fold change in test [3] (dose 0.40 uM), 0.190 log2 fold change in test [3] (dose 2.00 uM) and 0.227 log2 fold change in test [3] (dose 10.00 uM).

As to `CC(=O)OCC(=O)NCCCOc1cccc(CN2CCCCC2)c1` [Roxatidine Acetate HCl], the Dose.FC.LYZ.NS in test [1] (dose 0.08 uM) is reported as 0.149 log2 fold change; in test [1] (dose 0.40 uM) it was −0.029 log2 fold change; in test [1] (dose 2.00 uM), −0.001 log2 fold change; in test [1] (dose 10.00 uM), −0.061 log2 fold change. The Z.LYZ.NS in test [1] (dose 0.08 uM) was 1.295; in test [1] (dose 0.40 uM), −0.256; in test [1] (dose 2.00 uM), −0.009; in test [1] (dose 10.00 uM) it was −0.534. Besides, the Dose.FC.LYZ.S was 0.035 log2 fold change in test [2] (dose 0.08 uM), 0.099 log2 fold change in test [2] (dose 0.40 uM), −0.053 log2 fold change in test [2] (dose 2.00 uM) and −0.104 log2 fold change in test [2] (dose 10.00 uM). The Dose.FC.CTG is on record as −0.040 log2 fold change in test [3] (dose 0.08 uM), 0.021 log2 fold change in test [3] (dose 0.40 uM), −0.103 log2 fold change in test [3] (dose 2.00 uM) and −0.236 log2 fold change in test [3] (dose 10.00 uM).

`Cc1nn(-c2ccccc2)c(C)c1/C=N/N1CCN(Cc2ccccc2)CC1` [SANT-1]: the Dose.FC.LYZ.NS in test [1] (dose 0.08 uM) is given as 0.056 log2 fold change; in test [1] (dose 0.40 uM), 0.000 log2 fold change; in test [1] (dose 2.00 uM) it was 0.175 log2 fold change; in test [1] (dose 10.00 uM) it was −0.049 log2 fold change. The Z.LYZ.NS in test [1] (dose 0.08 uM) is listed as 0.485; in test [1] (dose 0.40 uM), 0.002; in test [1] (dose 2.00 uM) it was 1.528; in test [1] (dose 10.00 uM) it was −0.430. The Dose.FC.LYZ.S in test [2] (dose 0.08 uM) is recorded as 0.112 log2 fold change; in test [2] (dose 0.40 uM) it was 0.024 log2 fold change; in test [2] (dose 2.00 uM), 0.101 log2 fold change; in test [2] (dose 10.00 uM) it was −0.120 log2 fold change. The Dose.FC.CTG in test [3] (dose 0.08 uM) is reported as 0.308 log2 fold change; in test [3] (dose 0.40 uM) it was 0.078 log2 fold change; in test [3] (dose 2.00 uM) it was 0.137 log2 fold change; in test [3] (dose 10.00 uM), −0.042 log2 fold change. Moreover, the Z.CTG in test [3] (dose 0.08 uM) is 0.736; in test [3] (dose 0.40 uM), 0.186; in test [3] (dose 2.00 uM) it was 0.327; in test [3] (dose 10.00 uM), −0.100.
